From patent US11510931B2, “Compositions and methods for treating ophthalmic conditions” (MEDICON PHARMACEUTICALS, INC., priority 2016, dated 2022) come the findings set out here.

Holding throughout (assay type): in vivo, rabbit
Settings in all cases: Con A DED rabbits, 6 days, eye drops 3×/day; PS nanoparticles, cyclosporine 0.05%, lifitegrast 5%; mean ± SEM

Assay [1] deals with IL-8. The experiment in a line: IL-8 levels in the ILG of rabbits with DED (ELISA). How it is done:
(§1) Using this model, we compared the effect of PS to that of cyclosporine and lifitegrast. Rabbits were treated for 6 days with PS as above or cyclosporine 0.05% or lifitegrast 5% eye drops 3×/day. In addition to determining TUBT, osmolarity and STT, we measured the levels of IL-8 and IL-1β in the ILGs of the rabbits harvested at euthanasia. Both of these cytokines are significant mediators of inflammation in DED. As shown in the table below, PS had statistically significant effects on TBUT, tear osmolarity, IL-8 and IL-1β levels. […] Of note, lifitegrast suppressed STT below the levels of the vehicle group and this suppression was statistically significant, but in the opposite direction for a useful therapeutic effect.
(§2) Moreover, for all three cytokines PS suppressed their unstimulated levels as well (62%, 84% and 4.7% reduction, respectively). In addition, PS suppressed the levels of IL-8 by 64% and IL-1β (not expressed by the cultured cells) by 61% in the ILG of rabbits treated with PS for 1 week compared to controls treated with vehicle (FIG. 8B). TGF-β was not detectable by the method in ILG homogenates. All these changes were statistically significant (p<0.001-0.04, except for the unstimulated TGF-β).
Background: An ELISA detects its analyte on a solid surface through an enzyme-linked reagent.

For assay [2], the system named is concanavalin A-induced dry eye in rabbits. The experiment in a line: Concanavalin A (Con A)-induced dry eye disease (DED) model in rabbits: TBUT, Schirmer test, tear osmolarity, tear lactoferrin. The protocol:
To assess the efficacy of PS on DED an improved concanavalin A model was used. In the concanavalin A model, dry eye is induced by injecting the lacrimal glands of a mammal with concanavalin A, a selective T cell mitogen that induces a lymphocytic infiltrate in these glands. The concanavalin A model is generally described in (Barabino S. Animal models of dry eye. Arch Soc Esp Oftalmol. 2005; 80(12):693-4). Concanavalin A was injected to the lacrimal glands under ultrasound guidance, thus eliminating injections to the vicinity of the gland (as opposed to the gland itself). The head and the tail of the major lacrimal gland of the rabbit were injected separately. The dose of concanavalin A was optimized for DED signs.
In the testing described below, four markers of DED are monitored: the tear break up time (TBUT), the Schirmer test, tear osmolarity, and tear lactoferrin levels. All assays were performed at the same clock time (±1 hr) to avoid assay variability on account of circadian variations.
In an efficacy experiment using the concanavalin A model, one group of rabbits was treated with compound 5, also known as phosphosulindac and abbreviated as PS, 1.5% eye drops and one group with vehicle. […] It is thus clear that PS applied topically suppresses DED.
Con A was injected under ultrasound guidance into all the lacrimal glands and the success of the injection was verified by a post-injection ultrasound image (see FIG. 1 and FIG. 2). […] This variation explains why the blind injections recommended in the original method are often unsuccessful. This was confirmed by mixing the Con A solution with methylene blue and tracking its course after injection. In about ⅓ of the cases, Con A ended up outside the gland.
Four parameters of efficacy were evaluated instead of the usual one or two. They include (a) the tear break up time (TBUT), determined using 0.2% fluorescein over the eye and recording the time taken to develop black dots, lines or obvious disruption of the fluorescein film; (b) tear osmolarity, measured using TearLab Osmolarity Test and following the manufacturer's instructions (TearLab Corp., San Diego, Calif.); (3) Schirmer tear test (STT), determined using Schirmer strips (EagleVision, Denville, N.J.) inserted between the cornea and the palpebral conjunctiva at the mid-point of the lower lid and measuring the length of moistened strip at 5 min; and (4) tear lactoferrin levels measured by ELISA kit (MyBiosource, San Diego, Calif.) following the instructions of the manufacturer. All four have been used in clinical practice and correlate with the clinical activity of the disease. The STT is the least reliable and, as result, it is clinically used less than half as frequently as TBUT.
The injections of Con A to the lacrimal glands were repeated weekly as needed. When longer than a 1-week periods of study are needed, repeat injections prolong dry eye for at least 3 weeks, making the originally acute model chronic.
PS Suppresses Con A—Induced Dry Eye in Rabbits. The effect of PS on dry eye was determined in New Zealand White (NZW) rabbits, 2-3 kg (Charles River Labs, Waltham, Mass.). These rabbits were housed singly in rooms with strict temperature (70±5° F.) and humidity (45±5%) control and acclimated for at least 2 weeks prior to induction of dry eye by injection of Con A as above. NZW rabbits with Con A-induced dry eye (three sets of injections) were treated with PS formulated as nanoparticles and administered topically as eye drops 3×/day for 21 days, starting on the day of Con A injection. […] Similar results were obtained on days 5 and 14 (data not shown).
Using this model, we compared the effect of PS to that of cyclosporine and lifitegrast. Rabbits were treated for 6 days with PS as above or cyclosporine 0.05% or lifitegrast 5% eye drops 3×/day. In addition to determining TUBT, osmolarity and STT, we measured the levels of IL-8 and IL-1β in the ILGs of the rabbits harvested at euthanasia. […]

Assay [3] deals with IL-1β. The experiment in a line: IL-1β levels in the ILG of rabbits with DED (ELISA). The protocol:
as §1, §2

Turning to `CS(=O)(=O)c1cccc(C[C@H](NC(=O)c2c(Cl)cc3c(c2Cl)CCN(C(=O)c2ccc4ccoc4c2)C3)C(=O)O)c1` [Lifitegrast, lifitegrast, reference compound], the “IL-8 in the ILG” value in assay [1] is reported as 9.0 ± 2.4 pg/mg protein. For the same compound, in assay [2], the Osmolarity is 290 ± 4.2 mOsm/L, the STT is reported as 6.9 ± 0.7 mm and the TBUT came to 9.1 ± 3.0 s. The “IL-1β in the ILG” value in assay [3] is 11.5 ± 1.9 pg/mg protein.
